Literature values as cited in patent US9744157B2, “Combinations of solifenacin and salivary stimulants for the treatment of overactive bladder” (TheraVida, Inc., priority 2011, dated 2017).

System: saliva output
Details: 5 mg of pilocarpine

Question: Which “time of maximum saliva output after administration” value does the source give for CC[C@@H]1C(=O)OC[C@@H]1Cc1cncn1C [pilocarpine] here?
Answer: The value was “about 30 minutes”.
